According to patent EP0471756B1, “SACCHARIN DERIVATIVES USEFUL AS PROTEOLYTIC ENZYME INHIBITORS AND PREPARATION THEREOF” (priority 1989, dated 1990):

Experiments:
[1] = biological target: α-Chymotrypsin (Bos taurus, UniProt P00766); assay: Inactivation of α-chymotrypsin: kon measured, Ki* = koff/kon calculated; format: biochemical; conditions: rate of inactivation kon = kobs/[I], value is kon x 10^-3
Description: (§1) Thus, instead of measuring a Ki, a Ki* is calculated which is defined as the ratio of the koff/kon, the rate of reactivation of the enzyme to the rate of inactivation of the enzyme. The values of koff and kon are measured and Ki* is then calculated.
(§2) The rate of inactivation, kon, of enzymatic activity was determined for the compounds tested by measuring the enzyme activity of an aliquot of the respective enzyme as a function of time after addition of the test compound. […] The rate of inactivation is then equal to kon =(kobs)/([I]) [formula] where [I] is the concentration of the inhibiting compound.
(§3) The reactivation constant, koff, is similarly determined and the inhibition constant, Ki*, is then calculated as Ki * = koff /kon [formula]

[2] = biological target: T1, human leukocyte elastase (HLE) (Homo sapiens, UniProt P08246); assay: Inactivation of human leukocyte elastase: kon measured, Ki* = koff/kon calculated; format: biochemical; conditions: Elastase; for kinact/KI: rate of inactivation kon = kobs/[I], value is kon x 10^-3, read-out: 10^-3 x kon
T1 sequence (P08246 30-267): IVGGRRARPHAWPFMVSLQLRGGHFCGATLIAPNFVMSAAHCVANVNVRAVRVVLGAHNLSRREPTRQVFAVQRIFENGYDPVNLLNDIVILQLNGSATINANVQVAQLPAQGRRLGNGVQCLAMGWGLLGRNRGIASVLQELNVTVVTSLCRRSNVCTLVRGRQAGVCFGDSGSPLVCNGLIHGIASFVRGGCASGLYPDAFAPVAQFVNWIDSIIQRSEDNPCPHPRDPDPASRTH
Description: as §1, §2, §3

Structure (SMILES) | kinact/KI [1] [M⁻¹ s⁻¹] | kinact/KI [2] [M⁻¹ s⁻¹] | Ki ([2]; Ki* = koff/kon, not a truly reversible inhibition constant) [nM]
CC(=O)OCN1C(=O)c2c(C)cccc2S1(=O)=O [Example 1, 2-acetoxymethyl-4-methylsaccharin] | 1200 | 630 | 
CC(=O)OCN1C(=O)c2c(Cl)cccc2S1(=O)=O [Example 2, 2-acetoxymethyl-4-chlorosaccharin] | 2900 | 4900 | 
O=C1c2c(Cl)cccc2S(=O)(=O)N1CCl [Example 3, 2-chloromethyl-4-chlorosaccharin] | 5800 | 450000 | 
O=C1c2c(Cl)cccc2S(=O)(=O)N1Cn1nnn(-c2ccccc2)c1=S [Example 5, 4-chloro-2-(4-phenyl-5-thioxotetrazolin-1-ylmethyl)saccharin] | 6000 | 44000 | 
CC(=O)Nc1cccc(-n2nnnc2SCN2C(=O)c3ccccc3S2(=O)=O)c1 [Example 6, 2-[1-(3-acetamidophenyl)-1H-tetrazol-5-ylthiomethyl]saccharin] | 3700 | 5500 | 
Cn1nnnc1SCN1C(=O)c2ccccc2S1(=O)=O [Example 8, 2-(1-methyl-1H-tetrazol-5-ylthiomethyl)saccharin] | 2100 | 1000 | 81
O=C1c2ccccc2S(=O)(=O)N1C[S+]([O-])c1nnnn1-c1ccccc1 (stereo not drawn) [Example 10, 2-(1-phenyl-1H-tetrazol-5-ylsulfinylmethyl)saccharin] | 7000 | 7000 | 
O=C1c2ccccc2S(=O)(=O)N1CS(=O)(=O)c1ccccc1 [Example 12, 2-(phenylsulfonylmethyl)saccharin] | 1100 | 970 | 
O=C1c2ccccc2S(=O)(=O)N1C[S+]([O-])c1ncccn1 (stereo not drawn) [Example 13, 2-(2-pyrimidylsulfinylmethyl)saccharin] | 2600 | 300 | 
O=C1c2ccccc2S(=O)(=O)N1CS(=O)(=O)c1ncccn1 [Example 14, 2-(2-pyrimidylsulfonylmethyl)saccharin] | 2800 | 600 | 
O=C1c2c(-c3ccccc3)cccc2S(=O)(=O)N1CCl [Example 18, 2-chloromethyl-4-phenylsaccharin] | 210 | 1000 | 
O=C1c2ccccc2S(=O)(=O)N1/C=C/CSc1nnnn1-c1ccccc1 [Example 38, trans-2-[3-(1-phenyl-1H-tetrazol-5-ylthio)-1-propenyl]saccharin] |  | 43000 | 
